Read-outs that look alike come from different tables or passages of the source. Marks after values point to notes of the source that are not given here.
How the values were obtained:
[1] = Nitric oxide free radical scavenging activity (sodium nitroprusside); parameters: key to Half Maximal Inhibitory Concentration IC50 NO.: ---: no activity; conditions: for Half Maximal Inhibitory Concentration IC50 NO.: mean ± SD, triplicate; for nitric oxide radical scavenging activity: at the concentrations permitted to evaluate, Figure 3C
Method: The essential oil NO scavenging activity was estimated using the protocol described by El Guendouz et al. The inhibition percentage was calculated using the formula: Inhibition = [(A0 − (A1 − A2)/A0 × 100]. The A0 is the absorbance of sodium nitroprusside without sample, A1 and A2 were the absorbance of the sample with and without sodium nitroprusside.

5-lipoxygenase = 5-lipoxygenase (Glycine max, UniProt P08170); assay: Lipoxygenase inhibition assay (linoleic acid substrate); type: biochemical
Method: The 5-lipoxygenase assay was carried out according to the method described by El Guendouz et al. The following formula was used to determine the percentage of inhibition action: Inhibition = [(A0 − A1)/A0) × 100]; where A0 is the absorbance of the control and A1 is the absorbance of the sample.

S. aureus ATCC 6538 = assay: Agar disc diffusion; type: cell-based, Staphylococcus aureus; conditions: 5 µL per 6 mm disc, 24 h, diameter including disc, chloramphenicol 30 μg/mL
Method: (§1) The Gram negative bacterium Escherichia coli DSM 1077, and the Gram positive Staphylococcus aureus ATCC 6538 and the methicillin-resistant S. aureus 15 (MRSA 15) were used in the present study. The bacterial strains were recovered from −80 °C in the culture medium Brain Heart Infusion (BHI, Oxoid, Basingstock, UK), when required agar (VWR, Radnor, Philadelphia, PA, USA) at 1.5% w/v.
(§2) The bacterial susceptibility to the combinations Ro:La:Ca at ratio 1:1:1, Ro:La:Ca at ratio 2/3:1/6:16, Ro:La:Ca at ratio 1/6:2/3:16, Ro:La:Ca at ratio 1/6:1/6:2/3, and the components linalool, 1,8 cineole, and camphor, were performed by the agar disc diffusion technique as previously described. Briefly, 100 µL of the bacterial suspension at an OD600nm 0.3–0.4 was inoculated in BHI agar, and sterile discs (∅ 6 mm) were distributed over the surface. A volume of 5 µL of each EO and the individual components 1,8-cineole (52.62 mg/mL), and linalool (16.13 mg/mL), were deposited in the center of each disc. The plates were incubated for 24 h. The diameter of the inhibition zone including the disc was measured. The assay was performed in triplicate (n = 6).

[2] = test system: methicillin-resistant S. aureus 15 (MRSA 15); assay: Agar disc diffusion; type: cell-based, Staphylococcus aureus; conditions: 5 µL per 6 mm disc, 24 h, diameter including disc, chloramphenicol 30 μg/mL
Method: as §1, §2

acetylcholinesterase [3] = molecular target: T1, acetylcholinesterase (Homo sapiens, UniProt P22303); conditions: cited from earlier work
acetylcholinesterase [4] = molecular target: T1, acetylcholinesterase; assay: biochemical; type: biochemical
Method: The inhibitory activity of the essential oils on acetylcholinesterase was evaluated according to the method previously described. The following formula was used to determine the percentage of inhibition action: Inhibition = [(A0 − A1)/A0) × 100]; where A0 is the absorbance of the control and A1 is the absorbance of the sample.

tyrosinase = assay: Tyrosinase inhibition assay (L-DOPA oxidation); type: biochemical; parameters: inhibition: dose or concentration left out as unconfirmed; conditions: Figure 4C; read-out: tyrosinase inhibition percentage, major terpenes
Method: The tyrosinase inhibition was carried out by the tyrosinase-dependent L-3,4-dihydroxyphenylalanine (L-DOPA) oxidation assay as previously described. The following formula was used to determine the percentage of inhibition action: Inhibition = [(A0 − A1)/A0) × 100]; with A0 as the absorbance of the control and A1 as the absorbance of the sample.

E. coli DSM 1077 = assay: Agar disc diffusion; type: cell-based, Escherichia coli; conditions: 5 µL per 6 mm disc, 24 h, diameter including disc, chloramphenicol 30 μg/mL
Method: as §1, §2

[5] = Hydrogen peroxide scavenging activity (colorimetric); parameters: key: ---: no activity; conditions: mean ± SD, triplicate
Method: The scavenging hydrogen peroxide was evaluated by a colorimetric assay according to Gupta and Sharma. […] Tests were carried out in triplicate.

[6] = Superoxide anion radical scavenging (nonenzymatic PMS-NADH system); parameters: key: ---: no activity; conditions: mean ± SD, triplicate
Method: Superoxide anion free radical inhibition ability was evaluated using a nonenzymatic PMS-NADH (phenazine methosulfate–nicotinamide adenine dinucleotide) system as previously reported. The inhibition quantification was performed as aforementioned.

α-glucosidase = α-glucosidase (Saccharomyces cerevisiae, UniProt P53341); assay: α-Glucosidase inhibition assay; type: biochemical; conditions: mean ± SD, triplicate
Method: The α-glucosidase inhibitor capacity of the essential oils was determined as described by El-Guendouz et al. The crease of absorbance was performed at 405 nm. The inhibition percentage of the enzyme was calculated as follows: I% = [(A0 −A1)/A0) × 100]; where A0 is the absorbance of the control and A1 is the absorbance of the sample. The trials were triplicated.

T1 sequence (P22303 32-614, species assumed): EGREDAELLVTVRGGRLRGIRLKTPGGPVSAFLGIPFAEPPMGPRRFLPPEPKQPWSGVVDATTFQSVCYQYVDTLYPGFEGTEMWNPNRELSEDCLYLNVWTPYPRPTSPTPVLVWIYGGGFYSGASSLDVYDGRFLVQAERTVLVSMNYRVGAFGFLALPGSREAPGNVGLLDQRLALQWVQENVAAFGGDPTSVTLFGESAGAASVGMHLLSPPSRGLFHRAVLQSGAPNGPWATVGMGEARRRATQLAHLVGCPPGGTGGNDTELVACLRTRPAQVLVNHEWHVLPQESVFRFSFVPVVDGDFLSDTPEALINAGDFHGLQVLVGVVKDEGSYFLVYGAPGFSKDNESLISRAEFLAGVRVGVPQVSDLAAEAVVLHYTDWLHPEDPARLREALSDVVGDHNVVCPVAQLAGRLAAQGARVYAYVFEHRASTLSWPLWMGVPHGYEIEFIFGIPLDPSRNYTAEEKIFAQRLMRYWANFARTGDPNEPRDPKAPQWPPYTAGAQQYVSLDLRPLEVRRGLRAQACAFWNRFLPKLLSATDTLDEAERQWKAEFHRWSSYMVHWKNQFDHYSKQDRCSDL
Chain of tyrosinase (P14679 19-529, species assumed): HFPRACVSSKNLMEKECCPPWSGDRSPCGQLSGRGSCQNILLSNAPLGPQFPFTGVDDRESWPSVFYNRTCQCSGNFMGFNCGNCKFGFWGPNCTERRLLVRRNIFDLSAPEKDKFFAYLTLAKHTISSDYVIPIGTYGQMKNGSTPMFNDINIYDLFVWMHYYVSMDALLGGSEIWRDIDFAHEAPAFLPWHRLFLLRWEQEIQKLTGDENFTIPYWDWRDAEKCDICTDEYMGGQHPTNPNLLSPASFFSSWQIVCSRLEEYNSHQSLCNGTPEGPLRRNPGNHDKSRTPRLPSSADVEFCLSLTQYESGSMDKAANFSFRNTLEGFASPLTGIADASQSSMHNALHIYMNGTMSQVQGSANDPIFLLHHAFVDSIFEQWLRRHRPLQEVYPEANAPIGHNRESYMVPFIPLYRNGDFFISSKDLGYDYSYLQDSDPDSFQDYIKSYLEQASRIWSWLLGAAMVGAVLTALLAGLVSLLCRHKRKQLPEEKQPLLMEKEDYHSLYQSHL
Chain of 5-lipoxygenase (P08170 whole entry): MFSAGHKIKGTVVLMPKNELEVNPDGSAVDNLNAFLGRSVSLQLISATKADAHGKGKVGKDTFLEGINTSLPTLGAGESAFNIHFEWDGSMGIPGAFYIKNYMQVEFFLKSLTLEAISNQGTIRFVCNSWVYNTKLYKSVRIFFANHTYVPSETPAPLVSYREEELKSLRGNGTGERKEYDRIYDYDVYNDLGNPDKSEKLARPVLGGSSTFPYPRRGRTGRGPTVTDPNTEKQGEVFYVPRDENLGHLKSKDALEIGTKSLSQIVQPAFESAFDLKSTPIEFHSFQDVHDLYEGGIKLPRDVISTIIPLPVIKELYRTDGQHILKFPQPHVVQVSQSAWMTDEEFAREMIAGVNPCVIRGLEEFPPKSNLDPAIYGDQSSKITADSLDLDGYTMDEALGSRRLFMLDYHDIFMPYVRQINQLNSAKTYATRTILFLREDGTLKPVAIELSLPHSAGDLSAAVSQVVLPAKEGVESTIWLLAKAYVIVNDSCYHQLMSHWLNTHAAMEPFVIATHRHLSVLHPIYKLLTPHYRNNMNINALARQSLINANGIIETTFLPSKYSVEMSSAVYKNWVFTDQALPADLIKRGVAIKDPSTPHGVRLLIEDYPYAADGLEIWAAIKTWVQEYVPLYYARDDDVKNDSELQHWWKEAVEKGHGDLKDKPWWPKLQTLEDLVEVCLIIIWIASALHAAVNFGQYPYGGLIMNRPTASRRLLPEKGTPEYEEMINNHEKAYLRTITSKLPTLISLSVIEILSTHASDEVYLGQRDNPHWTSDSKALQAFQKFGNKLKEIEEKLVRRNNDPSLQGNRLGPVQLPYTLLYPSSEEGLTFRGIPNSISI
Chain of α-glucosidase (P53341 whole entry): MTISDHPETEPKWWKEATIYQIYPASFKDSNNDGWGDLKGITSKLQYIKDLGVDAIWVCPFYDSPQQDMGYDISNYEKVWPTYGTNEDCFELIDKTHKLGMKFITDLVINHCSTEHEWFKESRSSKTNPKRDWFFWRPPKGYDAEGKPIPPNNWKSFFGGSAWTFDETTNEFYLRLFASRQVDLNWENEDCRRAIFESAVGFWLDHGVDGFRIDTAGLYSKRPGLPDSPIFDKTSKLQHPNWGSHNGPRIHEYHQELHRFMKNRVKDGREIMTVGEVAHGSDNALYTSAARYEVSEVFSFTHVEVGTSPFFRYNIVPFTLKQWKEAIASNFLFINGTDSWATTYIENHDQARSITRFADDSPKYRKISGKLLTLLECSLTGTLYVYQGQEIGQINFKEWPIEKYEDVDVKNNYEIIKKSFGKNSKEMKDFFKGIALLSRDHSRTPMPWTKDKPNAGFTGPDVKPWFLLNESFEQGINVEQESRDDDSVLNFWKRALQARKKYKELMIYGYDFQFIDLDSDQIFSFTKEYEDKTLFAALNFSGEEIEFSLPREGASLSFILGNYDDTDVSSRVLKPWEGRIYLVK

CC12CCC(CC1)C(C)(C)O2 [1,8-Cineole]
Half Maximal Inhibitory Concentration IC50 NO. [1]: ---
lipoxygenase inhibition / anti-inflammatory activity (5-lipoxygenase): weak anti-inflammatory activity
Inhibition Zone S. aureus ATCC 6538 (S. aureus ATCC 6538): 10.5 ± 0.70 ^c mm
Inhibition Zone S. aureus ATCC 6538 (S. aureus ATCC 6538; listed as 1,8-cineole): 10.5 ± 0.70 mm
Inhibition Zone Methicillin Resistant S. aureus 15 [2]: 12.16 ± 0.47 ^b mm
IC50 (acetylcholinesterase [3]): 64.8 µM
IC50 (acetylcholinesterase [4]): 1170 µM
inhibition (tyrosinase): > 20%
Inhibition Zone E. coli DSM 1077 (E. coli DSM 1077): 12.16 ± 0.62 ^b,c mm

CC1(C)C2CCC1(C)C(O)C2 (stereo not shown) [Borneol]
nitric oxide radical scavenging activity [1]: had activity
IC50 (acetylcholinesterase [4]; mean ± SD, triplicate, read-out: Half Maximal Inhibitory Concentration IC50 Acetylcholinesterase (converted)): 3110 µM
Half Maximal Inhibitory Concentration IC50 H2O2 [5]: ---
inhibition (tyrosinase): > 20%

CC12CCC(CC1=O)C2(C)C (stereo not shown) [Camphor]
Half Maximal Inhibitory Concentration IC50 NO. [1]: ---
lipoxygenase inhibition / anti-inflammatory activity (5-lipoxygenase): weak anti-inflammatory activity
Inhibition Zone S. aureus ATCC 6538 (S. aureus ATCC 6538): 10.5 ± 1.22 ^c mm
Inhibition Zone S. aureus ATCC 6538 (S. aureus ATCC 6538; listed as camphor): 10.5 ± 1.22 mm
Inhibition Zone Methicillin Resistant S. aureus 15 [2]: 11.67 ± 1.02 ^b,c mm
Half Maximal Inhibitory Concentration IC50 Superoxide [6]: ---
Half Maximal Inhibitory Concentration IC50 H2O2 [5]: ---
inhibition (tyrosinase): > 20%
Inhibition Zone E. coli DSM 1077 (E. coli DSM 1077): 13.00 ± 0.40 ^b mm

O=C(N[C@H](CO)[C@H](O)c1ccc([N+](=O)[O-])cc1)C(Cl)Cl [Chloramphenicol]
Inhibition Zone S. aureus ATCC 6538 (S. aureus ATCC 6538): 10.16 ± 0.70 ^c mm
zone of inhibition at 30 µg/mL (S. aureus ATCC 6538; Staphylococcus aureus, ATCC6538): 10.2 ± 0.7 mm
Inhibition Zone Methicillin Resistant S. aureus 15 [2]: 6.00 ± 0.00 ^d mm
zone of inhibition at 30 µg/mL ([2]; Staphylococcus aureus, MRSA): 6 mm
zone of inhibition at 30 µg/mL (E. coli DSM 1077; Escherichia coli, DSM1077): 10.8 ± 0.47 mm

C=C(C)[C@H]1CC=C(C)CC1 [Limonene]
nitric oxide radical scavenging activity [1]: had activity
Half Maximal Inhibitory Concentration IC50 α-Glucosidase (α-glucosidase): 1.18 ± 0.06 ^a mg/mL
Half Maximal Inhibitory Concentration IC50 Lipoxygenase (5-lipoxygenase; mean ± SD, triplicate): 0.11 ± 0.01 ^f mg/mL
Half Maximal Inhibitory Concentration IC50 Acetylcholinesterase (acetylcholinesterase [4]; mean ± SD, triplicate): 0.08 ± 0.00 ^e,f,g,h,i mg/mL

— publication PMC8472154 (Molecules, 2021)
